# *1 amine or outer side, *2 acyl side, *3 side chain or, on linkers, in order; H or OH if unused. Where a SMILES comes first, the peptide text is derived from it. Bridges are numbered along the chain shown (N, C = ends). Side-chain parts run from the residue outwards. [ ]: non-standard residue; d: D form. The star is where a group is joined. NH(1-deoxy-D-glucityl) = OC[C@@H](O)[C@@H](O)[C@H](O)[C@@H](O)CN*; DOTA = O=C(O)CN1CCN(CC(=O)O)CCN(CC(=O)*)CCN(CC(=O)O)CC1; Trp(5-Br) = N[C@@H](Cc1c[nH]c2ccc(Br)cc12)C(=O)O; Trp(5-Cl) = N[C@@H](Cc1c[nH]c2ccc(Cl)cc12)C(=O)O; Pyridine(2,6-diCH2) = c1cc(C[*:1])nc(C[*:2])c1; Pro(4R-NH2) = N[C@H]1CN[C@H](C(=O)O)C1; Glutaryl = O=C(CCCC(=O)[*:2])[*:1]; X1 = O=C(CN1CCC(N[*:1])CC1)[*:2]; hSer = N[C@@H](CCO)C(=O)O; Api = NC1(C(=O)O)CCNCC1; Thp = NC1(C(=O)O)CCOCC1; AEEA = NCCOCCOCC(=O)O
# Target: T1, GIPR (CHO-K1-hGIPR cells) (Homo sapiens, UniProt P48546)
# T1 construct: host or cells: CHO-K1
# T1 sequence (P48546 22-466): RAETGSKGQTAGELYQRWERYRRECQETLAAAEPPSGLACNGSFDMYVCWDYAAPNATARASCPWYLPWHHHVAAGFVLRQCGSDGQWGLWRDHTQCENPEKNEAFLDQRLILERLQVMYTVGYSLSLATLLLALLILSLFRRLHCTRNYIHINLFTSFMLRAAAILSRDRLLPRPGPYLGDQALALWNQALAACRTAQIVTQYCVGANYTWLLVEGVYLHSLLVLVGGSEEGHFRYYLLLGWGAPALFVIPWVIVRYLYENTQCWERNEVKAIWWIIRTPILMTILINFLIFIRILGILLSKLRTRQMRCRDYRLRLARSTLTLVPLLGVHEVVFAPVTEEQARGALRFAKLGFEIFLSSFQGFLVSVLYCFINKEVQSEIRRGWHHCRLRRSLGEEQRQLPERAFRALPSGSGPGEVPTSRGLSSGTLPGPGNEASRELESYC
# Assay: FACS binding assay
# Conditions: competition with 20 nM GIP-057, 4° C., 1 hour, read-out: pIC50 Category (converted)
# Experimental: In order to determine binding of compounds according to the present invention to GIPR-expressing cells, a FACS binding assay was established.
# CHO-K1-hGIPR cells (GenScript Biotech, #M00486) were cultured in Ham's F12 medium (Sigma-Aldrich, #N4888) including 10% fetal calf serum (FCS), 2 mM L-glutamine, 100 U/mL penicillin, 100 μg/mL streptomycin, 200 μg/mL Zeocin and 100 μg/mL HygromycinB. Cells were detached with Accutase (Biolegend, #BLD-423201) and washed in FACS buffer (PBS including 1% FCS). Cells were diluted in FACS buffer to a final concentration of 500.000 cells per mL. 200 μL of the cell suspension were transferred to a u-shaped non-binding 96-well plate (Greiner) and cells were washed in ice-cold FACS buffer.
# Cells were washed twice in FACS buffer. An additional incubation step with 1 μg/mL APC-Streptavidin (Miltenyi; #130-106-791) in 50 μL FACS buffer for 30 min on ice was performed followed by two washes with FACS buffer.
# Cells were analyzed in an Attune NxT flow cytometer. Median fluorescence intensities (MFI) of the APC/Cy5-channel were calculated by Attune NxT software. MFI values were plotted against peptide concentration and four parameter logistic (4PL) curve fitting and EC50/pEC50 or IC50/pIC50 calculations were performed using ActivityBase software.
row,SMILES,IC50
1,"CC[C@H](C)[C@@H]1NC(=O)[C@H](CC(C)C)NC(=O)C2(CCN(C(=O)CCCC(=O)NC[C@H](O)[C@@H](O)[C@H](O)[C@H](O)CO)CC2)NC(=O)[C@@H](NC(=O)[C@@H](CC(C)C)NC(=O)[C@H](CCC(=O)O)NC(=O)[C@@H]2C[C@@H](N)CN2C(=O)[C@H](Cc2c[nH]c3ccc(Cl)cc23)NC(=O)[C@H](Cc2c[nH]c3ccccc23)NC(=O)[C@H](CC(=O)O)NC(=O)COCCOCCNC(=O)[C@@H](CCC(=O)NC[C@H](O)[C@@H](O)[C@H](O)[C@H](O)CO)NC(=O)CN2CCN(CC(=O)O)CCN(CC(=O)O)CCN(CC(=O)O)CC2)CSCc2cccc(n2)CSC[C@@H](C(=O)NC2CCN(CC(=O)N[C@H](CCC(=O)NC[C@H](O)[C@@H](O)[C@H](O)[C@H](O)CO)C(N)=O)CC2)NC1=O [GIP-009, DOTA-glu(AGLU)-O2Oc-Asp-Trp-5Clw-Tap-Glu-leu-[Cys(2Lut)-Apc(AGLU-Glutar)-Leu-Ile-Cys]-APAc-glu(AGLU)-NH2] ({DOTA}-[dE](NH(1-deoxy-D-glucityl))[AEEA]DW[Trp(5-Cl)][Pro(4R-NH2)]E[dL]C[Api]([Glutaryl-NH(1-deoxy-D-glucityl)])LIC[X1][dE](NH(1-deoxy-D-glucityl))-NH2; linker 9-13 via Pyridine(2,6-diCH2))",< 10 nM
2,"CC[C@H](C)[C@@H]1NC(=O)[C@H](CC(C)C)NC(=O)C2(CCN(C(=O)CCCC(=O)NC[C@H](O)[C@@H](O)[C@H](O)[C@H](O)CO)CC2)NC(=O)[C@@H](NC(=O)[C@@H](CC(C)C)NC(=O)[C@H](CCC(=O)O)NC(=O)[C@@H]2C[C@@H](N)CN2C(=O)[C@H](Cc2c[nH]c3ccc(Cl)cc23)NC(=O)[C@H](Cc2c[nH]c3ccccc23)NC(=O)[C@H](CC(=O)O)NC(=O)CN2CCC(NC(=O)CN3CCN(CC(=O)O)CCN(CC(=O)O)CCN(CC(=O)O)CC3)CC2)CSCc2cccc(n2)CSC[C@@H](C(=O)NC2CCN(CC(=O)N[C@H](CCC(=O)NC[C@H](O)[C@@H](O)[C@H](O)[C@H](O)CO)C(N)=O)CC2)NC1=O [GIP-012, DOTA-APAc-Asp-Trp-5Clw-Hyp-Glu-leu-[Cys(2Lut)-Apc(AGLU-Glutar)-Leu-Ile-Cys]-APAc-glu(AGLU)-NH2] ({DOTA}-[X1]DW[Trp(5-Cl)][Pro(4R-NH2)]E[dL]C[Api]([Glutaryl-NH(1-deoxy-D-glucityl)])LIC[X1][dE](NH(1-deoxy-D-glucityl))-NH2; linker 8-12 via Pyridine(2,6-diCH2))",< 10 nM
3,"CC[C@H](C)[C@@H]1NC(=O)[C@H](CC(C)C)NC(=O)C2(CCN(C(=O)CN3CCN(CC(=O)O)CCN(CC(=O)O)CCN(CC(=O)O)CC3)CC2)NC(=O)[C@@H](NC(=O)[C@@H](CC(C)C)NC(=O)[C@H](CCC(=O)O)NC(=O)[C@@H]2C[C@@H](N)CN2C(=O)[C@H](Cc2c[nH]c3ccc(Cl)cc23)NC(=O)[C@H](Cc2c[nH]c3ccccc23)NC(=O)[C@H](CC(=O)O)NC(=O)CN2CCC(NC(=O)CCCC(=O)NC[C@H](O)[C@@H](O)[C@H](O)[C@H](O)CO)CC2)CSCc2cccc(n2)CSC[C@@H](C(=O)NC2CCN(CC(=O)N[C@H](CCC(=O)NC[C@H](O)[C@@H](O)[C@H](O)[C@H](O)CO)C(N)=O)CC2)NC1=O [GIP-013, AGLU-Glutar-APAc-Asp-Trp-5Clw-Tap-Glu-leu-[Cys(2Lut)-Apc(DOTA)-Leu-Ile-Cys]-APAc-glu(AGLU)-NH2] ({NH(1-deoxy-D-glucityl)-Glutaryl}-[X1]DW[Trp(5-Cl)][Pro(4R-NH2)]E[dL]C[Api](DOTA)LIC[X1][dE](NH(1-deoxy-D-glucityl))-NH2; linker 8-12 via Pyridine(2,6-diCH2))",< 10 nM

# Next, values leading:
row,IC50,SMILES
1,< 10 nM,"CC[C@H](C)[C@@H]1NC(=O)[C@H](CC(C)C)NC(=O)C2(CCN(C(=O)CN3CCN(CC(=O)O)CCN(CC(=O)O)CCN(CC(=O)O)CC3)CC2)NC(=O)[C@@H](NC(=O)[C@@H](CC(C)C)NC(=O)[C@H](CCC(=O)O)NC(=O)[C@@H]2C[C@@H](N)CN2C(=O)[C@H](Cc2c[nH]c3ccc(Br)cc23)NC(=O)[C@H](Cc2c[nH]c3ccccc23)NC(=O)[C@H](CC(=O)O)NC(=O)CCCC(=O)NC[C@H](O)[C@@H](O)[C@H](O)[C@H](O)CO)CSCc2cccc(n2)CSC[C@@H](C(=O)NC2CCN(CC(=O)N[C@H](CCC(=O)NC[C@H](O)[C@@H](O)[C@H](O)[C@H](O)CO)C(N)=O)CC2)NC1=O [GIP-015, AGLU-Glutar-Asp-Trp-5Brw-Tap-Glu-leu-[Cys(2Lut)-Apc(DOTA)-Leu-Ile-Cys]-APAc-glu(AGLU)-NH2] ({NH(1-deoxy-D-glucityl)-Glutaryl}-DW[Trp(5-Br)][Pro(4R-NH2)]E[dL]C[Api](DOTA)LIC[X1][dE](NH(1-deoxy-D-glucityl))-NH2; linker 7-11 via Pyridine(2,6-diCH2))"
2,< 10 nM,"CC[C@H](C)[C@@H]1NC(=O)[C@H](CC(C)C)NC(=O)C2(CCN(C(=O)CN3CCN(CC(=O)O)CCN(CC(=O)O)CCN(CC(=O)O)CC3)CC2)NC(=O)[C@@H](NC(=O)[C@@H](CC(C)C)NC(=O)[C@H](CCC(=O)O)NC(=O)[C@@H]2C[C@@H](N)CN2C(=O)[C@H](Cc2c[nH]c3ccc(Br)cc23)NC(=O)[C@H](Cc2c[nH]c3ccccc23)NC(=O)[C@H](CCO)NC(=O)CCCC(=O)NC[C@H](O)[C@@H](O)[C@H](O)[C@H](O)CO)CSCc2cccc(n2)CSC[C@@H](C(=O)NC2CCN(CC(=O)N[C@H](CCC(=O)NC[C@H](O)[C@@H](O)[C@H](O)[C@H](O)CO)C(N)=O)CC2)NC1=O [GIP-016, AGLU-Glutar-Hse-Trp-5Brw-Tap-Glu-leu-[Cys(2Lut)-Apc(DOTA)-Leu-Ile-Cys]-APAc-glu(AGLU)-NH2] ({NH(1-deoxy-D-glucityl)-Glutaryl}-[hSer]W[Trp(5-Br)][Pro(4R-NH2)]E[dL]C[Api](DOTA)LIC[X1][dE](NH(1-deoxy-D-glucityl))-NH2; linker 7-11 via Pyridine(2,6-diCH2))"
3,< 10 nM,"CC[C@H](C)[C@@H]1NC(=O)[C@H](CC(C)C)NC(=O)C2(CCOCC2)NC(=O)[C@@H](NC(=O)[C@@H](CC(C)C)NC(=O)[C@H](CCC(=O)O)NC(=O)[C@@H]2C[C@@H](N)CN2C(=O)[C@H](Cc2c[nH]c3ccc(Cl)cc23)NC(=O)[C@H](Cc2c[nH]c3ccccc23)NC(=O)[C@H](CC(=O)O)NC(=O)[C@@H](CCC(=O)NC[C@H](O)[C@@H](O)[C@H](O)[C@H](O)CO)NC(=O)COCCOCCNC(=O)CN2CCN(CC(=O)O)CCN(CC(=O)O)CCN(CC(=O)O)CC2)CSCc2cccc(n2)CSC[C@@H](C(=O)NC2CCN(CC(=O)N[C@H](CCC(=O)NC[C@H](O)[C@@H](O)[C@H](O)[C@H](O)CO)C(N)=O)CC2)NC1=O [GIP-018, DOTA-O2Oc-glu(AGLU)-Asp-Trp-5Clw-Tap-Glu-leu-[Cys(2Lut)-Thp-Leu-Ile-Cys]-APAc-glu(AGLU)-NH2] ({DOTA-AEEA}-[dE](NH(1-deoxy-D-glucityl))DW[Trp(5-Cl)][Pro(4R-NH2)]E[dL]C[Thp]LIC[X1][dE](NH(1-deoxy-D-glucityl))-NH2; linker 8-12 via Pyridine(2,6-diCH2))"

# Same assay, conditions: pIC50 Category, competition with 20 nM GIP-057, 4° C., 1 hour
row,SMILES,IC50
1,"CC[C@H](C)[C@@H]1NC(=O)[C@H](CC(C)C)NC(=O)C2(CCN(C(=O)CN3CCN(CC(=O)O)CCN(CC(=O)O)CCN(CC(=O)O)CC3)CC2)NC(=O)[C@@H](NC(=O)[C@@H](CC(C)C)NC(=O)[C@H](CCC(=O)O)NC(=O)[C@@H]2C[C@@H](N)CN2C(=O)[C@H](Cc2c[nH]c3ccc(Br)cc23)NC(=O)[C@H](Cc2c[nH]c3ccccc23)NC(=O)[C@H](CC(=O)O)NC(=O)CN2CCC(NC(=O)CCCC(=O)NC[C@H](O)[C@@H](O)[C@H](O)[C@H](O)CO)CC2)CSCc2cccc(n2)CSC[C@@H](C(=O)NC2CCN(CC(=O)N[C@H](CCC(=O)NC[C@H](O)[C@@H](O)[C@H](O)[C@H](O)CO)C(N)=O)CC2)NC1=O [GIP-014, AGLU-Glutar-APAc-Asp-Trp-5Brw-Tap-Glu-leu-[Cys(2Lut)-Apc(DOTA)-Leu-Ile-Cys]-APAc-glu(AGLU)-NH2] ({NH(1-deoxy-D-glucityl)-Glutaryl}-[X1]DW[Trp(5-Br)][Pro(4R-NH2)]E[dL]C[Api](DOTA)LIC[X1][dE](NH(1-deoxy-D-glucityl))-NH2; linker 8-12 via Pyridine(2,6-diCH2))",< 10 nM
